Source: US10766903B2 (ALMAC DISCOVERY LIMITED, priority 2016, dated 2020)
Where two headings read alike, the source gives them in different places.

Molecular target: USP7 (Homo sapiens (Human), UniProt Q93009)
Test: USP7 fluorescence polarisation (FP) biochemical assay, ubiquitin-Lys-TAMRA substrate
Conditions: average of at least duplicate experiments
Procedure, shortened: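 Full-length His6-USP7 (2.5 nM) incubated ± inhibitor (8-point dilutions, 200 to 0.1 μM before addition) in 50 mM HEPES pH 7.2, 150 mM NaCl, 0.5 mM EDTA, 5 mM DTT, 0.05% BSA, 0.05% CHAPS. Ubiquitin-Lys-TAMRA cleavage followed by FP (ex 530/em 575 nm) every 15 min for 1.5 h; normalised to no-compound control.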

[1] = Table 4, biochemical assay, read-out: USP7 IC50

Chain of USP7 (Q93009 whole entry): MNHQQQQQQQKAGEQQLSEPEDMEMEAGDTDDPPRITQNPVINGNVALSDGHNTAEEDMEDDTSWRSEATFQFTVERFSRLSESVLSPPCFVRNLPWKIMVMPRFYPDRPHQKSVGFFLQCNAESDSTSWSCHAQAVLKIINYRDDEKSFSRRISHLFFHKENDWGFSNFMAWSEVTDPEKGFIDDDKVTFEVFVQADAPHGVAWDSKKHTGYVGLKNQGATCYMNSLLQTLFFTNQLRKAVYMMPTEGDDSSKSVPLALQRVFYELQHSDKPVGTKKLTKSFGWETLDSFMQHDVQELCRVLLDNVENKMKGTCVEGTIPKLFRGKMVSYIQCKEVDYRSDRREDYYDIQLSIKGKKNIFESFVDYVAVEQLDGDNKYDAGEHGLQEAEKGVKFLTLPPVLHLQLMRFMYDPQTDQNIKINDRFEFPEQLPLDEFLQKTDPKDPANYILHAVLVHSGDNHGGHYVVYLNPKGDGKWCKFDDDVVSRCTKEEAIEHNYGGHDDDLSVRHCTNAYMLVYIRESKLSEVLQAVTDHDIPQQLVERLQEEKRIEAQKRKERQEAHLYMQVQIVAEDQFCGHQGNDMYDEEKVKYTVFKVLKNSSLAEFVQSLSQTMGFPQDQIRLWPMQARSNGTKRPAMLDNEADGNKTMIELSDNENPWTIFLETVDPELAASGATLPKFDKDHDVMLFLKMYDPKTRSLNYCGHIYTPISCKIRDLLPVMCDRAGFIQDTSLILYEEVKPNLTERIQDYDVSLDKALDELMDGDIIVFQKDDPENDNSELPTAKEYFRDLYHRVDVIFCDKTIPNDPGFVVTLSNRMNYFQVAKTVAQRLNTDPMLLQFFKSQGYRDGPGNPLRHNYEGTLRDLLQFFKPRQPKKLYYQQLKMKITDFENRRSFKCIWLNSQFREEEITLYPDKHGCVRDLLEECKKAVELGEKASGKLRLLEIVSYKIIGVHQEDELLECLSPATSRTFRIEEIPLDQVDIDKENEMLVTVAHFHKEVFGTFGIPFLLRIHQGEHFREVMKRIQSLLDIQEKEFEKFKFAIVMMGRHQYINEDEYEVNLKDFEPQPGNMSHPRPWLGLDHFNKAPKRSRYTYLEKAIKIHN

| Compound | IC50 (USP7 IC50, Table 4, biochemical assay) | IC50 [1] |
| --- | --- | --- |
| Cc1nc2c(=O)n(CC3(O)CCN(C(=O)C[C@H](c4ccccc4)C(F)(F)F)CC3)cnc2n1-c1ccccc1 [Example 189, (R)-1-((4-Hydroxy-1-(4,4,4-trifluoro-3-phenylbutanoyl)piperidin-4-yl)methyl)-8-methyl-9-phenyl-1H-purin-6(9H)-one] | 250 to 999 nM |  |
| Cc1nc2c(=O)n(CC3(O)CCN(C(=O)CC(C4CC4)C4CC4)CC3)cnc2n1-c1ccccc1 [Example 190, 1-((1-(3,3-Dicyclopropylpropanoyl)-4-hydroxypiperidin-4-yl)methyl)-8-methyl-9-phenyl-1H-purin-6(9H)-one] |  | 1000 to 200000 nM |
| Cn1nc2c(=O)n(CC3(O)CCN(C(=O)C4(C)CC4)CC3)cnc2c1-c1ccccc1 [Example 191, 6-((4-Hydroxy-1-(1-methylcyclopropanecarbonyl)piperidin-4-yl)methyl)-2-methyl-3-phenyl-2H-pyrazolo[4,3-d]pyrimidin-7(6H)-one] |  | 1000 to 200000 nM |
| Cn1nc2c(=O)n(CC3(O)CCN(C(=O)c4cnco4)CC3)cnc2c1-c1ccccc1 [Example 192, 6-((4-Hydroxy-1-(oxazole-5-carbonyl)piperidin-4-yl)methyl)-2-methyl-3-phenyl-2H-pyrazolo[4,3-d]pyrimidin-7(6H)-one] |  | 1000 to 200000 nM |
| Cn1nc2c(=O)n(CC3(O)CCN(C(=O)CC(C4CC4)C4CC4)CC3)cnc2c1-c1ccccc1 [Example 193, 6-((1-(3,3-Dicyclopropylpropanoyl)-4-hydroxypiperidin-4-yl)methyl)-2-methyl-3-phenyl-2H-pyrazolo[4,3-d]pyrimidin-7(6H)-one] |  | 250 to 999 nM |
| CCOC(=O)NCc1ccc(-c2c3ncn(CC4(O)CCN(C(=O)C[C@@H](C)c5ccccc5)CC4)c(=O)c3nn2C)cc1 [Example 194, (R)-Ethyl 4-(6-((4-hydroxy-1-(3-phenylbutanoyl)piperidin-4-yl)methyl)-2-methyl-7-oxo-6,7-dihydro-2H-pyrazolo[4,3-d]pyrimidin-3-yl)benzylcarbamate] |  | < 250 nM |
| Cc1nc2c(=O)n(CC3(O)CCN(C(=O)c4cnc(C5CC5)o4)CC3)cnc2n1-c1ccccc1 [Example 195, 1-((1-(2-Cyclopropyloxazole-5-carbonyl)-4-hydroxypiperidin-4-yl)methyl)-8-methyl-9-phenyl-1H-purin-6(9H)-one] |  | 1000 to 200000 nM |
| Cn1nc2c(=O)n(CC3(O)CCN(C(=O)c4cnc(C5CC5)o4)CC3)cnc2c1-c1ccccc1 [Example 196, 6-((1-(2-Cyclopropyloxazole-5-carbonyl)-4-hydroxypiperidin-4-yl)methyl)-2-methyl-3-phenyl-2H-pyrazolo[4,3-d]pyrimidin-7(6H)-one] |  | 1000 to 200000 nM |
| CC1(C(=O)N2CCC(O)(Cn3cnc4c(nnn4-c4ccccc4)c3=O)CC2)CC1 [Example 197, 6-((4-Hydroxy-1-(1-methylcyclopropanecarbonyl)piperidin-4-yl)methyl)-3-phenyl-3H-[1,2,3]triazolo[4,5-d]pyrimidin-7(6H)-one] |  | 1000 to 200000 nM |
| O=C(c1cnc(C2CC2)o1)N1CCC(O)(Cn2cnc3c(nnn3-c3ccccc3)c2=O)CC1 [Example 198, 6-((1-(2-Cyclopropyloxazole-5-carbonyl)-4-hydroxypiperidin-4-yl)methyl)-3-phenyl-3H-[1,2,3]triazolo[4,5-d]pyrimidin-7(6H)-one] |  | 1000 to 200000 nM |
| CC1(C(=O)N2CCC(O)(Cn3cnc4[nH]c(Cl)cc4c3=O)CC2)CC1 [Example 199, 6-Chloro-3-((4-hydroxy-1-(1-methylcyclopropanecarbonyl)piperidin-4-yl)methyl)-3H-pyrrolo[2,3d]pyrimidin-4(7H)-one] |  | 1000 to 200000 nM |
| CC1(C(=O)N2CCC(O)(Cn3cnc4c(cc(Cl)n4-c4csc(CO)c4)c3=O)CC2)CC1 [Example 201, 6-Chloro-3-((4-hydroxy-1-(1-methylcyclopropanecarbonyl)piperidin-4-yl)methyl)-7-(5-(hydroxymethyl)thiophen-3-yl)-3H-pyrrolo[2,3-d]pyrimidin-4(7H)-one] |  | < 250 nM |
| CC1(C(=O)N2CCC(O)(Cn3cnc4c(cc(Cl)n4-c4ccc(F)cc4)c3=O)CC2)CC1 [Example 204, 6-Chloro-7-(4-fluorophenyl)-3-((4-hydroxy-1-(1-methylcyclopropanecarbonyl)piperidin-4-yl)methyl)-3H-pyrrolo[2,3-d]pyrimidin-4(7H)-one] |  | < 250 nM |
| O=C(c1cnc(C2CC2)o1)N1CCC(O)(Cn2cnc3c(cc(Cl)n3-c3ccc(F)cc3)c2=O)CC1 [Example 205, 6-Chloro-3-((1-(2-cyclopropyloxazole-5-carbonyl)-4-hydroxypiperidin-4-yl)methyl)-7-(4-fluorophenyl)-3H-pyrrolo[2,3-d]pyrimidin-4(7H)-one] |  | < 250 nM |
| COc1cc(-n2c(Cl)cc3c(=O)n(CC4(O)CCN(C(=O)c5cnc(C6CC6)o5)CC4)cnc32)ccc1F [Example 206, 6-Chloro-3-((1-(2-cyclopropyloxazole-5-carbonyl)-4-hydroxypiperidin-4-yl)methyl)-7-(4-fluoro-3-methoxyphenyl)-3H-pyrrolo[2,3-d]pyrimidin-4(7H)-one] |  | < 250 nM |
| COc1cc(-n2c(Cl)cc3c(=O)n(CC4(O)CCN(C(=O)C5(C)CC5)CC4)cnc32)ccc1F [Example 207, 6-Chloro-7-(4-fluoro-3-methoxyphenyl)-3-((4-hydroxy-1-(1-methylcyclopropanecarbonyl)piperidin-4-yl)methyl)-3H-pyrrolo[2,3-d]pyrimidin-4(7H)-one] |  | 250 to 999 nM |
| Cn1nccc1-c1cccc(-n2c(Cl)cc3c(=O)n(CC4(O)CCN(C(=O)C5(C)CC5)CC4)cnc32)c1 [Example 208, 6-Chloro-3-((4-hydroxy-1-(1-methylcyclopropanecarbonyl)piperidin-4-yl)methyl)-7-(3-(1-methyl-1H-pyrazol-5-yl)phenyl)-3H-pyrrolo[2,3-d]pyrimidin-4(7H)-one] |  | 250 to 999 nM |
| Cn1c(Cl)cc2c(=O)n(CC3(O)CCN(C(=O)C4(C)CC4)CC3)cnc21 [Example 209, 6-Chloro-3-((4-hydroxy-1-(1-methylcyclopropanecarbonyl)piperidin-4-yl)methyl)-7-methyl-3H-pyrrolo[2,3-d]pyrimidin-4(7H)-one] |  | 1000 to 200000 nM |
| Cn1nccc1-c1cccc(-n2c(Cl)cc3c(=O)n(CC4(O)CCN(C(=O)c5cnc(C6CC6)o5)CC4)cnc32)c1 [Example 210, 6-Chloro-3-((1-(2-cyclopropyloxazole-5-carbonyl)-4-hydroxypiperidin-4-yl)methyl)-7-(3-(1-methyl-1H-pyrazol-5-yl)phenyl)-3H-pyrrolo[2,3-d]pyrimidin-4(7H)-one] |  | 250 to 999 nM |
| Cn1cc(-c2cccc(-n3c(Cl)cc4c(=O)n(CC5(O)CCN(C(=O)c6cnc(C7CC7)o6)CC5)cnc43)c2)cn1 [Example 211, 6-Chloro-3-((1-(2-cyclopropyloxazole-5-carbonyl)-4-hydroxypiperidin-4-yl)methyl)-7-(3-(1-methyl-1H-pyrazol-4-yl)phenyl)-3H-pyrrolo[2,3-d]pyrimidin-4(7H)-one] |  | < 250 nM |
| O=C(c1cnc(C2CC2)o1)N1CCC(O)(Cn2cnc3c(cc(Cl)n3-c3cccc(Br)c3)c2=O)CC1 [Example 213, 7-(3-Bromophenyl)-6-chloro-3-((1-(2-cyclopropyloxazole-5-carbonyl)-4-hydroxypiperidin-4-yl)methyl)-3H-pyrrolo[2,3-d]pyrimidin-4(7H)-one] |  | < 250 nM |
| CC1(C(=O)N2CCC(O)(Cn3cnc4c(cc(Cl)n4-c4cccc(Br)c4)c3=O)CC2)CC1 [Example 214, 7-(3-Bromophenyl)-6-chloro-3-((4-hydroxy-1-(1-methylcyclopropanecarbonyl)piperidin-4-yl)methyl)-3H-pyrrolo[2,3-d]pyrimidin-4(7H)-one] |  | 250 to 999 nM |
| O=C(c1cnc(C2CC2)o1)N1CCC(O)(Cn2cnc3c(cc(Cl)n3-c3ccccc3)c2=O)CC1 [Example 215, 6-Chloro-3-((1-(2-cyclopropyloxazole-5-carbonyl)-4-hydroxypiperidin-4-yl)methyl)-7-phenyl-3H-pyrrolo[2,3-d]pyrimidin-4(7H)-one] |  | < 250 nM |
| Cn1cc(C(=O)N2CCC(O)(Cn3cnc4c(cc(Cl)n4-c4ccccc4)c3=O)CC2)cn1 [Example 216, 6-Chloro-3-((4-hydroxy-1-(1-methyl-1H-pyrazole-4-carbonyl)piperidin-4-yl)methyl)-7-phenyl-3H-pyrrolo[2,3-d]pyrimidin-4(7H)-one] |  | 250 to 999 nM |
| O=C(c1cnc(C2CC2)o1)N1CCC(O)(Cn2cnc3c(cc(Cl)n3-c3cccc(C4CC4)c3)c2=O)CC1 [Example 217, 6-Chloro-3-((1-(2-cyclopropyloxazole-5-carbonyl)-4-hydroxypiperidin-4-yl)methyl)-7-(3-cyclopropylphenyl)-3H-pyrrolo[2,3-d]pyrimidin-4(7H)-one] |  | < 250 nM |
| CC1(C(=O)N2CCC(O)(Cn3cnc4c(cc(Cl)n4-c4cccc(C5CC5)c4)c3=O)CC2)CC1 [Example 218, 6-Chloro-7-(3-cyclopropylphenyl)-3-((4-hydroxy-1-(1-methylcyclopropanecarbonyl)piperidin-4-yl)methyl)-3H-pyrrolo[2,3-d]pyrimidin-4(7H)-one] |  | < 250 nM |
| Cn1cc(C(=O)N2CCC(O)(Cn3cnc4c(cc(Cl)n4-c4cccc(C5CC5)c4)c3=O)CC2)cn1 [Example 219, 6-Chloro-7-(3-cyclopropylphenyl)-3-((4-hydroxy-1-(1-methyl-1H-pyrazole-4-carbonyl)piperidin-4-yl)methyl)-3H-pyrrolo[2,3-d]pyrimidin-4(7H)-one] |  | < 250 nM |
| CC1(C(=O)N2CCC(O)(Cn3cnc4c(cc(Cl)n4-c4ccc(C5CC5)cc4)c3=O)CC2)CC1 [Example 220, 6-Chloro-7-(4-cyclopropylphenyl)-3-((4-hydroxy-1-(1-methylcyclopropanecarbonyl)piperidin-4-yl)methyl)-3H-pyrrolo[2,3-d]pyrimidin-4(7H)-one] |  | < 250 nM |
